# Assay results taken from publication PMC12541891 (MicrobiologyOpen, 2025).
# Key:
# S. aureus biofilm = experiment: Biofilm metabolic activity by XTT-reduction assay; assay type: cell-based, Staphylococcus aureus; settings: substance alone at MIC
# Experimental: (§1) For all bacterial strains considered in the study, biofilm was performed on a 96‐well plate inoculated with 200 µL of a bacterial suspension 1 × 10^6 CFU/mL and incubated 24 h at 37°C. After incubation for 4 h at 37°C, the medium was aspirated, non‐adherent cells were removed, washed with PBS and added with 200 µL of fresh medium. […] Similarly, to perform fungal biofilm, the different Candida species were grown for 24 h at 28°C on a multi‐wells plate, washed twice with sterile PBS, and then resuspended at 37°C in RPMI 1640 plus 10% FBS at 2.5 × 10^7 cells. After incubation for 3 h at 37°C in six‐well polystyrene plates, the medium was aspirated, non‐adherent cells were removed and washed with PBS.
# (§2) The biofilm metabolic activity was evaluated by XTT assay, that highpoints the activity through the reduction of the tetrazolium salt to formazan. After the removal of supernatant and washing with PBS, a solution of XTT‐menadione solution were added to wells. The XTT‐menadione was prepared dissolving XTT powder in prewarmed PBS (37°C) at 0.5 g/L. The solution was sterilized through a 0.22 μm pore size filter. Before each assay, the XTT solution was thawed and supplemented with menadione, a 10 mM stock dissolved in acetone to a final concentration 1 μM. Plates were incubated for 3 h at 37°C in the dark and then the absorbance was measured at 492 nm using the microplate reader, Tecan Sunrise.
# MRSA biofilm = experiment: Biofilm metabolic activity by XTT-reduction assay; assay type: cell-based, Staphylococcus aureus; settings: substance alone at MIC
# Experimental: as §1, §2
# C. krusei biofilm = experiment: Biofilm metabolic activity by XTT-reduction assay; assay type: cell-based, Candida krusei
# Experimental: as §1, §2
# C. krusei 44956 = experiment: MIC and MFC by microbroth dilution; assay type: cell-based, Candida krusei; settings: Pichia kudriavzevii, 44956
# Experimental: (§3) No substance was added, in one well, for growth control. A bacterial suspension of 1 × 10^8 CFU/mL was inoculated into all wells of the plate and incubated for 24 h at 37°C. […] The dilutions ranged from 4 to 2000 µg/mL for the substances. The inoculum size was about 2.5×10^3 cells/mL. The plates were incubated at 28°C for 24–48 h. The MIC was determined as the lowest substances' concentration where no visible bacterial or fungal growth was observed. […] Each antimicrobial assay was performed in triplicate.
# C. tropicalis biofilm = experiment: Biofilm biomass by crystal violet (CV) assay; assay type: cell-based, Candida tropicalis
# Experimental: as §1
# (§4) To quantify bacterial and Candida biofilm biomass, CV, a dye able to color the biofilm matrix, was used. Firstly, after the removal of supernatant and washing with PBS, biofilm was fixed adding 100 µL of 99% methanol for 15 min. Then, methanol was rinsed off and the plates were air‐dried. Subsequently, 100 µL of a 0.1% of CV solution were added to wells and, after 20 min of contact, the plates were washed under running tap water. To dissolve the bounded CV, 150 µL of 33% of glacial acetic acid were added to wells. The absorbance was measured at 590 nm using an automatic microplate reader, Tecan Sunrise (Tecan Group Ltd., Männedorf, Switzerland).
# E. coli biofilm [1] = experiment: Biofilm metabolic activity by XTT-reduction assay; assay type: cell-based, Escherichia coli; settings: substance alone at MIC
# Experimental: as §1, §2
# ESBL-Ec biofilm [2] = experiment: Biofilm metabolic activity by XTT-reduction assay; assay type: cell-based, Escherichia coli; settings: substance alone at MIC
# Experimental: as §1, §2
# C. albicans biofilm [3] = experiment: Biofilm biomass by crystal violet (CV) assay; assay type: cell-based, Candida albicans
# Experimental: as §1, §4
# C. glabrata DSY562 = experiment: MIC and MFC by microbroth dilution; assay type: cell-based, Candida glabrata; settings: Nakaseomyces glabratus, DSY562
# Experimental: as §3
# C. glabrata biofilm = experiment: Biofilm metabolic activity by XTT-reduction assay; assay type: cell-based, Candida glabrata
# Experimental: as §1, §2
# E. coli biofilm [4] = experiment: Biofilm biomass by crystal violet (CV) assay; assay type: cell-based, Escherichia coli; settings: substance alone at MIC
# Experimental: as §1, §4
# ESBL-Ec biofilm [5] = experiment: Biofilm biomass by crystal violet (CV) assay; assay type: cell-based, Escherichia coli; settings: substance alone at MIC
# Experimental: as §1, §4
# C. albicans biofilm [6] = experiment: Biofilm metabolic activity by XTT-reduction assay; assay type: cell-based, Candida albicans
# Experimental: as §1, §2
# C. albicans AIDS 68 = experiment: MIC and MFC by microbroth dilution; assay type: cell-based; settings: Candida albicans, AIDS68
# Experimental: as §3
# C. tropicalis 45,615 = experiment: MIC and MFC by microbroth dilution; assay type: cell-based; settings: Candida tropicalis
# Experimental: as §3
# [7] = test system: Staphylococcus aureus ATCC 6538; experiment: MIC and MBC by microbroth dilution; assay type: cell-based
# Experimental: as §3
# [8] = test system: Extended Spectrum-Beta-Lactamase producing E. coli (ESBL-Ec); experiment: MIC and MBC by microbroth dilution; assay type: cell-based; settings: Escherichia coli
# Experimental: as §3
# [9] = test system: methicillin resistant S. aureus (MRSA); experiment: MIC and MBC by microbroth dilution; assay type: cell-based; settings: Staphylococcus aureus
# Experimental: as §3
# [10] = test system: Escherichia coli MG1655 (ATCC 700926); experiment: MIC and MBC by microbroth dilution; assay type: cell-based
# Experimental: as §3
# [11] = biofilm in formation (3 h), substance alone at MIC
# [12] = biofilm in formation, sub-MIC concentrations alone or in combination (Table 5), listed as C
# [13] = preformed biofilm (24 h), substance alone at MIC
# [14] = preformed biofilm, sub-MIC concentrations alone or in combination (Table 5), listed as C
smiles,measurement,setting,value
"Cc1ccc(C(C)C)cc1O [Carvacrol, 2‐methyl‐5‐isopropyl phenol]",Percentage of metabolic activity reduction,S. aureus biofilm; biofilm in formation (4 h),54.9%
same,Percentage of metabolic activity reduction,S. aureus biofilm; preformed biofilm (24 h),88%
same,Percentage of metabolic activity reduction,MRSA biofilm; biofilm in formation (4 h),24.6%
same,Percentage of metabolic activity reduction,MRSA biofilm; preformed biofilm (24 h),45.6%
same,Percentage of metabolic activity reduction,C. krusei biofilm; [11],89.4%
same,Percentage of metabolic activity reduction,C. krusei biofilm; [12],30%
same,Percentage of metabolic activity reduction,C. krusei biofilm; [13],89.4%
same,Percentage of metabolic activity reduction,C. krusei biofilm; [14],25%
same,MFC,C. krusei 44956,500 µg/mL
same,MIC,C. krusei 44956,500 µg/mL
same,Percentage of biomass reduction,C. tropicalis biofilm; [12],25.3%
same,Percentage of biomass reduction,C. tropicalis biofilm; [13],57.4%
same,Percentage of biomass reduction,C. tropicalis biofilm; [14],20.8%
same,Percentage of metabolic activity reduction,E. coli biofilm [1]; biofilm in formation (4 h),62%
same,Percentage of metabolic activity reduction,E. coli biofilm [1]; preformed biofilm (24 h),28.5%
same,Percentage of metabolic activity reduction,ESBL-Ec biofilm [2]; biofilm in formation (4 h),57%
same,Percentage of metabolic activity reduction,ESBL-Ec biofilm [2]; preformed biofilm (24 h),22%
same,Percentage of biomass reduction,C. albicans biofilm [3]; [12],53.5%
same,Percentage of biomass reduction,C. albicans biofilm [3]; [13],36%
same,Percentage of biomass reduction,C. albicans biofilm [3]; [14],29.6%
same,MFC,C. glabrata DSY562,500 µg/mL
same,MIC,C. glabrata DSY562,250 µg/mL
same,Percentage of metabolic activity reduction,C. glabrata biofilm; [11],92%
same,Percentage of metabolic activity reduction,C. glabrata biofilm; [12],70%
same,Percentage of metabolic activity reduction,C. glabrata biofilm; [13],91.0%
same,Percentage of metabolic activity reduction,C. glabrata biofilm; [14],51.2%
same,Percentage of biomass reduction,E. coli biofilm [4]; biofilm in formation (4 h),70.6%
same,Percentage of biomass reduction,E. coli biofilm [4]; preformed biofilm (24 h),62.2%
same,Percentage of biomass reduction,ESBL-Ec biofilm [5]; biofilm in formation (4 h),55.9%
same,Percentage of biomass reduction,ESBL-Ec biofilm [5]; preformed biofilm (24 h),59.6%
same,Percentage of metabolic activity reduction,C. albicans biofilm [6]; [11],91%
same,Percentage of metabolic activity reduction,C. albicans biofilm [6]; [12],55.1%
same,Percentage of metabolic activity reduction,C. albicans biofilm [6]; [13],93%
same,Percentage of metabolic activity reduction,C. albicans biofilm [6]; [14],44.9%
same,MFC,C. albicans AIDS 68,500 µg/mL
same,MIC,C. albicans AIDS 68,250 µg/mL
same,MFC,"C. tropicalis 45,615",500 µg/mL
same,MIC,"C. tropicalis 45,615",500 µg/mL
same,MBC,[7]; ATCC6538,125 µg/mL
same,MIC,"[7]; ATCC6538, 24 h",125 µg/mL
same,MBC,[8],125 µg/mL
same,MIC,[8]; 24 h,125 µg/mL
same,MBC,[9],125 µg/mL
same,MIC,[9]; 24 h,125 µg/mL
same,MBC,[10],125 µg/mL
same,MIC,[10]; 24 h,125 µg/mL
